Data set [1] in a line: Inhibition of human recombinant beta tryptase using S-2366 as substrate after 30 mins by spectrophotometry.
A short description of data set [2]: Cmax in rat at 10 mg/kg, po. Format: ADME, organism-based. Details: dose 10 mg/kg, route oral. The conditions noted are these: in vivo.
Data set [3] in a line: Volume of distribution at steady state in rat at 2 mg/kg, iv and 10 mg/kg, po. The conditions noted are these: in vivo, read-out: Vdss.
A further data set deals with Coagulation factor X (Homo sapiens, UniProt P00742). The data set can be described thus: Inhibition of Coagulation factor 10a.
Coagulation factor X, sequence (P00742 41-179 limits assumed): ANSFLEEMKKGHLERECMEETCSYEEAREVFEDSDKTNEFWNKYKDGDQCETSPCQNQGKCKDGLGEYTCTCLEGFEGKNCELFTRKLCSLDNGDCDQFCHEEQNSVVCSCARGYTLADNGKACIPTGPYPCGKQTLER
Coagulation factor X, sequence (P00742 235-488 limits assumed): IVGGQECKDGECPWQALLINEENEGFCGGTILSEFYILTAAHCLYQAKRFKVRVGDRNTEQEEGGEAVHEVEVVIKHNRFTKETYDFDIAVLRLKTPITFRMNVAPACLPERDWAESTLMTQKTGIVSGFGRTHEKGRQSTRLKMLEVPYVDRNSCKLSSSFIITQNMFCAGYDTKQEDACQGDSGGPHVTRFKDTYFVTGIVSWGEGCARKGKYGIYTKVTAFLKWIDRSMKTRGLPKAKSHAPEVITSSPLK
Data set [4] in a line: Oral bioavailability in rat at 10 mg/kg. The class given is ADME, organism-based. To be noted: in vivo.
Data set [5] is described as follows: Tmax in rat at 10 mg/kg, po. The class given is ADME, organism-based. Details: dose 10 mg/kg, route oral. The conditions noted are these: in vivo.
A short description of data set [6]: Half life in rat plasma at 2 mg/kg, iv.
For a further data set, the target named is Prothrombin (Homo sapiens, UniProt P00734). The experiment in a line: Inhibition of thrombin.
A short description of data set [7]: Inhibition of trypsin.
The nature of data set [8]: Inhibition of elastase.
A short description of data set [9]: Plasma clearance in rat at 2 mg/kg, iv and 10 mg/kg, po.
The next data set concerns the target T1, Chymase (Homo sapiens, UniProt P23946).
T1 sequence (P23946 whole entry): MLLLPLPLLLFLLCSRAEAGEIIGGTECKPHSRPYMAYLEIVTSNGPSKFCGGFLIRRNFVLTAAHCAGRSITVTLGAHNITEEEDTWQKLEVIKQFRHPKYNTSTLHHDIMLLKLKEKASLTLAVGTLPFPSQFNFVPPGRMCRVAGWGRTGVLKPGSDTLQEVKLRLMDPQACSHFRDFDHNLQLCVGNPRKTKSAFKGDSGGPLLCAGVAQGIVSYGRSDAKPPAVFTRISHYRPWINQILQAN
The data set can be described thus: Inhibition of chymase.

Usually Ki stands for a dissociation constant, usually derived from enzyme kinetics or from competition with a known ligand. On to `NCc1cccc(C2CCN(C(=O)c3ccc(C#Cc4ccc(Cl)cc4)o3)CC2)c1`, for which the Ki in [1] worked out at 166 nM.
Broadly, the Cmax is the peak of the concentration-time curve. As usually defined, the IC50 is the concentration that inhibits the measured activity by half. Read a low IC50 as higher potency. Broadly, the bioavailability is the share of a dose that reaches the circulation, judged against a reference dose that is usually intravenous. A lower bioavailability goes with little systemic uptake. In general, Tmax refers to the time from dosing to the highest level. One may read the half-life as the time needed for the level to fall by half in the phase considered. A lower half-life goes with rapid decline. In turn, `NCc1cccc(C2CCN(C(=O)c3ccc(C#Cc4ccccc4)o3)CC2)c1.O=C(O)C(F)(F)F` displayed a Cmax in [2] of 68 ng/mL. Moreover, the Vd in data set [3] was determined as 14.1 L/kg. For the same molecule, the IC50 (on Coagulation factor X; on Prothrombin; in data set [7]; in [8]; against Chymase) was over 100000 nM throughout. Also, in data set [4], the bioavailability turned out to be 32%. The Tmax in data set [5] is 3.3 h. Moreover, the half-life in data set [6] is 2.5 h. In addition, the Ki in data set [1] is 31 nM. The molecule also gave a clearance in data set [9] of 85 mL/min/kg.
Molecule `NCc1cccc(C2CCN(C(=O)c3ccc(C#Cc4ccccc4F)o3)CC2)c1.O=C(O)C(F)(F)F` gave a Cmax in data set [2] of 121 ng/mL. The Vd in data set [3] came to 18.5 L/kg. The IC50 (at Coagulation factor X; against Prothrombin; in data set [7]; in data set [8]; at Chymase) was over 100000 nM in each case. Besides, the bioavailability in data set [4] stood at 77%. Besides, in data set [5], the Tmax is 3.7 h. This molecule also showed a half-life in data set [6] of 2.2 h. This molecule also gave a clearance in data set [9] of 140 mL/min/kg.
Turning to `Cc1ccc(C#Cc2ccc(C(=O)N3CCC(c4cccc(CN)c4)CC3)o2)cc1`, in data set [1], the Ki came to 112 nM.
As for `Cc1ccccc1C#Cc1ccc(C(=O)N2CCC(c3cccc(CN)c3)CC2)o1`, in data set [1], the Ki was 324 nM.
Same read-out and setting: to `NCc1cccc(C2CCN(C(=O)c3ccc(C#Cc4ccc(F)c(F)c4)o3)CC2)c1` belongs 742 nM.
Take `NCc1cccc(C2CCN(C(=O)c3ccc(C#Cc4ccc(F)cc4F)o3)CC2)c1`: the Ki in [1] was found to be 67 nM.
On the same count and under the same terms, to `NCc1cccc(C2CCN(C(=O)c3ccc(C#Cc4ccc(F)cc4)o3)CC2)c1` belongs 279 nM; to `NCc1cccc(C2CCN(C(=O)c3ccc(C#Cc4cccc(F)c4)o3)CC2)c1`, 98 nM; to `NCc1cccc(C2CCN(C(=O)c3ccc(C#Cc4ccccc4Cl)o3)CC2)c1`, 22 nM.
As to `NCc1cccc(C2CCN(C(=O)c3ccc(C#Cc4ccc(Cl)nc4)o3)CC2)c1`, the Ki in data set [1] came to 101 nM.
With `NCc1cccc(C2CCN(C(=O)c3ccc(C#Cc4cccs4)o3)CC2)c1`, the Ki in data set [1] came out at 236 nM.
With `NCc1cccc(C2CCN(C(=O)c3ccc(C#Cc4ccsc4)o3)CC2)c1`, in data set [1], the inhibition constant (Ki) was 327 nM.
For the molecule `NCc1cccc(C2CCN(C(=O)c3ccc(C#Cc4cccnc4)o3)CC2)c1`, in data set [1], the inhibitory constant (Ki) is 84 nM.
Take `NCc1cccc(C2CCN(C(=O)c3ccc(C#Cc4ccccn4)o3)CC2)c1.O=C(O)C(F)(F)F`: the IC50 against Coagulation factor X is 9000 nM; at Prothrombin, over 100000 nM; in data set [7], over 100000 nM; in [8], over 100000 nM; on Chymase, over 100000 nM. In addition, the bioavailability in data set [4] turned out to be 0%. This molecule showed a half-life in data set [6] of 0.46 h. The Ki in [1] came out at 5 nM. Besides, the clearance in [9] is 310 mL/min/kg.
As to `NCc1cccc(C2CCN(C(=O)c3ccc(C#Cc4ncccc4F)o3)CC2)c1`, the Ki in data set [1] worked out at 27 nM.
On the same count and under the same terms, to `NCc1cccc(C2CCN(C(=O)c3ccc(C#Cc4cnccn4)o3)CC2)c1` belongs 2770 nM; to `NCc1cccc(C2CCN(C(=O)c3ccc(C#Cc4ncccn4)o3)CC2)c1`, 157 nM.

The record behind these values is ChEMBL document CHEMBL1944527, “Structure-based library design and the discovery of a potent and selective mast cell β-tryptase inhibitor as an oral therapeutic agent” (Bioorg Med Chem Lett, 2012).
